Experimental findings from PMC9404989, “Design and Evaluation of Short Bovine Lactoferrin-Derived Antimicrobial Peptides against Multidrug-Resistant Enterococcus faecium” (Antibiotics, 2022) are described below.

For data set [1], the system named is E. faecium strain C68. Kind of data set: microbe, parasite or virus in culture. The format is cell-based, Enterococcus faecium. The conditions noted are these: strain C68, 18 h. As for the experimental part: (§1) To determine the MICs of peptides, we used the broth microdilution method described by the Clinical and Laboratory Standards Institute. We made serial dilutions of 10× concentration (10 µL) for each peptide in duplicates in 96-well plates (Cat No. 3595, Corning, New York, NY, USA). We added 90 µL of logarithmic-phase bacteria at 5 × 10^5 CFU/mL (in BHI media) to the peptides and then incubated the plates at 37 °C for 18 h. We measured the OD600 absorbance readings using the Spectra Max i3x spectrophotometer (Molecular Devices, San Jose, CA, USA) and determined the MIC as the peptide concentration that inhibits the growth of bacteria.
To investigate the activity of peptides in various salt concentrations, we included physiologically relevant salts in the BHI medium.

The test system of data set [2] is human red blood cells (hRBCs). The format is cell-based. As for the experimental part: We evaluated the ability of the peptide to cause hemoglobin leakage using the method described in [15]. In brief, we washed human erythrocytes (Rockland Immunochemicals (Limerick, Pottstown, PA, USA)) 3× times in an equal volume of PBS and resuspended them as 2% hRBCs solution. We added 90 µL of the blood cells to 10 µL of the peptide solution (10×) in a 96-well microtiter plate (Cat No. 3595, Corning, New York, NY, USA) and incubated the plates at 37 °C for 1 h. Next, we centrifuged the plates at 500× g for 5 min, transferred 60 µL of the supernatant into a fresh 96-well plate, and read the absorbance at 540 nm. We calculated the percent hemolysis considering 100% hemolysis caused by 1% Triton X-100, and 0% on PBS and using the formula for percentage of hemolysis as: (A540 nm in the peptide solution − A540 nm in PBS)/(A540 nm of 1% Triton X-100-treated sample − A540 nm in PBS) × 100.

A further data set relates to E. faecium D29. Kind of data set: microbe, parasite or virus in culture. The format is cell-based, Enterococcus faecium. The following applies: ampicillin resistant, vancomycin-sensitive isolate. Here is the method:
as §1

A further data set deals with E. faecium D24. The data set is described as follows: microbe, parasite or virus in culture. It counts as cell-based, Enterococcus faecium. The following applies: ampicillin resistant, vancomycin-sensitive isolate. As for the experimental part:
as §1

A further data set relates to E. faecium E007. The data set is described as follows: microbe, parasite or virus in culture. It counts as cell-based, Enterococcus faecium. The following applies: tetracycline-resistant strain. As for the experimental part: as §1
Another data set deals with E. faecium D25. The data set is described as follows: microbe, parasite or virus in culture. It counts as cell-based, Enterococcus faecium. The conditions noted are these: ampicillin resistant, vancomycin-sensitive isolate. As for the experimental part:
as §1

Data set [3] concerns E. faecium strain C68. Kind of data set: microbe, parasite or virus in culture. The following applies: strain C68, 18 h. The format is cell-based, Enterococcus faecium. As for the experimental part:
as §1
The source holds these as a separate data set.

The next data set concerns E. faecium D14. The data set is described as follows: microbe, parasite or virus in culture. The following applies: ampicillin resistant, vancomycin-sensitive isolate. The format is cell-based, Enterococcus faecium. Here is the method: as §1
Data set [4] relates to biofilm genes ace, esp, ebpA, ebpC of E. faecium strain C68. The data set is described as follows: qPCR of genes associated with biofilm formation. It counts as cell-based, Enterococcus faecium. The conditions noted are these: 0.5× MIC, 30 min, real-time PCR. As for the experimental part:
For the qPCR of genes associated with biofilm formation, we followed an established protocol for RNA isolation and quantitative PCR reactions with minor modifications. We prepared exponential cultures of E. faecium strain C68 adjusted to an OD600 = 0.4 in BHI media from overnight grown cultures. After treating 10 mL of bacterial culture with 0.5× MICs of 5L and 6L for 30 min, we extracted RNA using the RNeasy mini kit (Qiagen, Hilden, Germany) according to the manufacturer’s instructions. Using the primers listed in Supplementary Table S2, we performed cDNA synthesis and quantitative reverse transcription (RT)-PCR as recommended by the manufacturer (Bio-Rad, Hercules, CA, USA). Our qPCR cycling conditions were: 95 °C for 30 s; 40 cycles at 95 °C for 5 s; 55 °C for 30 s; and finished with a melt curve analysis from 65 to 95 °C.

No end group written: not given here.

In the case of RRWLWLRRWLWR-NH2 [Peptide 5L], in the data set on E. faecium strain C68 [1], the “MIC + CaCl2 (2.5 mM)” value amounted to 16 µg/mL, the “MIC + MgSO4 (1 mM)” value was determined as 8 µg/mL, the “MIC + NaCl (150 mM)” value amounted to 4 µg/mL and the “MIC + ZnSO4 (8 µM)” value turned out to be 4 µg/mL. In data set [2], this substance displayed an HL50 of 56 µg/mL. Further, the “MIC D29” value in the data set on E. faecium D29 is on record as 16 µg/mL. In addition, the “MIC D24” value against E. faecium D24 is reported as 8 µg/mL. Further, the “MIC E007” value in the data set with E. faecium E007 was 4 µg/mL. In addition, the “MIC D25” value against E. faecium D25 came to 4 µg/mL. Besides, in the data set on E. faecium strain C68 [3], the “MIC EF C68” value was determined as 4 µg/mL and the “MIC Media Only” value is 4 µg/mL. Besides, the “MIC D14” value against E. faecium D14 was 16 µg/mL. Further, in data set [4], the “downregulation of ace expression” value was 8 folds, the “downregulation of ebpA expression” value worked out at 2 fold, the “downregulation of ebpC expression” value came out at 2 fold and the “downregulation of esp expression” value worked out at 4 fold.

For RRWLWRLRWLWR-NH2 [Peptide 6L], in the data set on E. faecium strain C68 [1], the “MIC + CaCl2 (2.5 mM)” value worked out at 8 µg/mL, the “MIC + MgSO4 (1 mM)” value was determined as 8 µg/mL, the “MIC + NaCl (150 mM)” value is reported as 4 µg/mL and the “MIC + ZnSO4 (8 µM)” value is reported as 4 µg/mL. The HL50 in [2] is 34 µg/mL. Also, the “MIC D29” value against E. faecium D29 was 8 µg/mL. Besides, in the data set on E. faecium D24, the “MIC D24” value is given as 8 µg/mL. Moreover, in the data set with E. faecium E007, the “MIC E007” value is listed as 4 µg/mL. The “MIC D25” value in the data set on E. faecium D25 came out at 4 µg/mL. Also, in the data set on E. faecium strain C68 [3], the “MIC EF C68” value is on record as 4 µg/mL and the “MIC Media Only” value turned out to be 4 µg/mL. The “MIC D14” value in the data set with E. faecium D14 is listed as 8 µg/mL. Also, in data set [4], the “downregulation of ace expression” value is listed as 4 folds and the “downregulation of ebpC expression” value is listed as 2 fold.
